Assay results as given in patent US8729047B2, “Compositions for inhibiting redox-sensitive GTPases” (Board of Regents, The University of Texas System, priority 2010, dated 2014).

Experiments:
RhoA = molecular target: T1, RhoA (Rattus norvegicus, UniProt P61589); test: Co-IP ESI-MS of thioguanine nucleotide disulfide adduct in A7r5 cells; assay type: cell-based; settings: for thioguanine nucleotide-RhoA disulfide adduct (Cys20): FIGS. 21, 22
T1 construct: endogenous in cells; host or cells: A7r5 cells (rat aortic vascular smooth muscle)
Method: FIG. 21. Detection of 6-TGNP adduct from A7r5 and T cells. Experimental procedures using A7r5 (A and B) and T (C and D) cells, respectively, were identical to those of the experiments described in FIG. 19 and previous studies (Tiede et al. J. Clin. Invest. 111, 1133-1145 (2003); and Poppe et al. J. Immunol. 176, 640-651 (2006)). The cell extract was incubated with a monoclonal RhoA antibody (A and B) or a Rac1 antibody (C and D) coupled with resin. Resin was collected by centrifugation (5,000×g, 10 min), which was suspended in 50% methanol:0.1% formic acid. The protein portion was separated by brief centrifugation (3,000×g for 5 min), resuspended in a buffer containing 10 mM EDTA and 5 mM phosphate (pH 7.5), digested with trypsin for 10 h, and analyzed with MS. The MS peak at 1476.6 Da represents peptide-6-TGDP adduct; TC^20LLIVFSK-6-TGDP.
FIG. 22. Detection of 8-TGNP adduct from A7r5 cells. […] The indicated MS peak at 1476.6 Da represents peptide-8-TGDP adduct; TC^20LLIVFSK-8-TGDP (SEQ ID NO:4). The molecular weight of the peptide-8-TGDP adduct is exactly the same as that of the peptide-6-TGDP adduct. A and B, respectively, represent any of samples taken from a cell culture with and without treatment with 8-TG.

HME-RhoC cells = test: Matrigel invasion (cell motility) assay; assay type: cell-based, human
Method: FIG. 5. Determination of cell invasiveness in the presence and absence of 6-thiopurine and/or a redox agent. The top chamber of a Transwell filter (6.5 mm with 8 μm pores, Costar; Corning, N.Y.) was coated with a 10 μL aliquot of 10 mg/mL Matrigel (BD Biosciences, Bedford Mass.), and the lower chamber of the Transwell was filled with either serum-free or serum-containing media. Sample cells (e.g., 6-TG-resistant HME-RhoC cells) were prepared to resuspend cells in a serum-free medium with 0.1% BSA at a concentration of 4×10^5 cells/mL. At this point, neither 6-thiopurine nor GSNO were added to the cells. The sample cells (0.5 mL) were added to the top chamber of a Transwell filter and were incubated for 24 h at 37° C. in a 10% CO2 incubator. The Transwell filters were fixed with methanol, stained with H&E, and cells in the serum-containing samples were counted. The number of cells that had invaded the serum-free medium-containing lower chambers was used as a control background. Results are given as percent invasion over that seen in HME-RhoC cells (100%) and represent mean and standard error values from triplicate measurements.
FIG. 11. Determination of cell invasiveness in the presence and absence of […] and/or a redox agent. […] The number of cells that had invaded the serum-free medium-containing lower chambers was used as a control background. Results are given as percent invasion over that seen in HME-RhoC cells (100%) and represent mean and standard error values from triplicate measurements.
FIG. 14. Determination of cell invasiveness in the presence and absence of thiopurines and/or redox agents. […] Western blot analysis representing the total expression of RhoC in these cells also is shown. (B) Experimental procedures for the determination of the time-dependent motility of cells using the QCM Cell Invasion Assay kit in the presence and absence of 6-TG and DETA/NO are described elsewhere herein.
The top chamber of a Transwell filter (6.5 mm with 8 μm pores, Costar; Corning, N.Y.) was coated with a 10 μL aliquot of 10 mg/mL Matrigel, and the lower chamber of the Transwell was filled with either serum-free or serum-containing media. Sample cells were prepared to resuspend cells in a serum-free medium with 0.1% BSA at a concentration of 4×10^5 cells/mL. […] The Transwell filters were fixed with methanol, stained with haematoxylin and eosin, and cells in the serum-containing samples were counted. The number of cells that had invaded the serum-free, medium-containing lower chambers was used as a control background.

T1 sequence (P61589 whole entry): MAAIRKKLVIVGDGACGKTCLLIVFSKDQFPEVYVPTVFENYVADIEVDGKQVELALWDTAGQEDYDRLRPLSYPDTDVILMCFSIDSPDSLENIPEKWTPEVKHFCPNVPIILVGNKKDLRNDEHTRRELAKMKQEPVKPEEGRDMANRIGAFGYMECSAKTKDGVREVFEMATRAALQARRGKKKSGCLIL

## Nc1nc2nc[nH]c2c(=S)[nH]1 [6-TG, 6-thioguanine]
RhoA
  thioguanine nucleotide-RhoA disulfide adduct (Cys20): biologically inactive 6-TGNP-RhoA disulfide adduct
RhoA; both 6-TG and NO, intensity not truly quantitative
  MS peak representing 6-TGNP-RhoA adduct: increased
HME-RhoC cells; 6-TG 1 μM alone, three or more consecutive days, FIG. 14A
  cell motility: gradual but significant diminution of cell motility
HME-RhoC cells; 6-TG 1 μM with DETA/NO (or GSNO) 10 μM, three days, FIG. 14A
  invasive cell motility: complete termination of the invasive cell motility

## Nc1nc2[nH]c(S)nc2c(=O)[nH]1 [8-TG, 2-amino-8-mercapto-1H-purin-6(9H)-one]
RhoA
  thioguanine nucleotide-RhoA disulfide adduct (Cys20): biologically inactive 8-TGNPRhoA disulfide adduct
HME-RhoC cells; 8-TG for a week, then DETA/NO or GSNO 10 μM every 20 or 8 h
  invasive mobility after 8-TG followed by NO donor: virtually all of the invasive mobility of HME-RhoC cells was immediately terminated
HME-RhoC cells; in conjunction with a redox agent
  termination of RhoC-mediated cell invasiveness, 8-TG with redox agent versus 6-TG-redox combination: much more effective than a 6-TG-redox combination
HME-RhoC cells; in the presence of NO donor DETA/NO
  screen of thiopurine analogs on invasive cell mobility: most effectively inhibits
HME-RhoC cells; only 8-TG 1 μM, FIG. 11
  decline of invasive cell mobility over 5 days of continuous treatment: ~60%
  decline of invasive cell mobility within a day: ~10%
